Test results reported in ChEMBL document CHEMBL6109115, “Rapid discovery of pseudorabies virus inhibitors repurposed from the antimicrobial agent ciprofloxacin” (Eur J Med Chem, 2025).
Values after ≈ are worked out from the molar mass of the structure shown. Active and inactive are the calls of the source. No cut-off for these calls is given here.

Legend:
[1] = Cytotoxicity against pig PK-15 cells assessed as cell viability incubated for 72 hrs by CCK-8 assay; format: toxicity, cell-based, Sus scrofa
Suid alphaherpesvirus 1 [2] = assay: Antiviral activity against Suid alphaherpesvirus 1 infected in pig PK-15 cells assessed as inhibition of viral growth; format: functional; conditions: Suid alphaherpesvirus 1, in Sus scrofa
Suid alphaherpesvirus 1 [3] = assay: Antiviral activity against Suid alphaherpesvirus 1 infected in pig PK-15 cells assessed as inhibition of replication pretreated with compound for 2 hrs followed by viral infection and measured after 48 hrs; format: functional, organism-based; conditions: Suid alphaherpesvirus 1, PK-15
Suid alphaherpesvirus 1 [4] = assay: Antiviral activity against Suid alphaherpesvirus 1 infected in pig PK-15 cells infected for 1 hr followed by compound addition and measured after 48 hrs; format: functional, organism-based; conditions: Suid alphaherpesvirus 1, PK-15
Suid alphaherpesvirus 1 [5] = assay: Antiviral activity against Suid alphaherpesvirus 1; format: functional, organism-based
[6] = Cytotoxicity against pig PK-15 cells; format: toxicity, cell-based, Sus scrofa
Suid alphaherpesvirus 1 [7] = assay: Antiviral activity against Suid alphaherpesvirus 1 infected in pig PK-15 cells assessed as inhibition of viral replication pretreated with compound for 2 hrs followed by viral infection and measured after 24 hrs by ELISA analysis; format: functional, organism-based; conditions: Suid alphaherpesvirus 1, PK-15
Suid alphaherpesvirus 1 [8] = assay: Antiviral activity against Suid alphaherpesvirus 1 infected in pig PK-15 cells assessed as inhibition of viral replication; format: functional, organism-based; conditions: Suid alphaherpesvirus 1, PK-15
Suid alphaherpesvirus 1 [9] = assay: Antiviral activity against Suid alphaherpesvirus 1 infected in pig PK-15 cells assessed as inhibition of replication at >200 nM pretreated with compound for 2 hrs followed by viral infection and measured after 48 hrs; format: functional; conditions: time 50 hrs
Suid alphaherpesvirus 1 [10] = assay: Antiviral activity against Suid alphaherpesvirus 1 infected in pig PK-15 cells; format: functional, organism-based; conditions: Suid alphaherpesvirus 1, PK-15
Suid alphaherpesvirus 1 [11] = assay: Antiviral activity against Suid alphaherpesvirus 1 infected in pig PK-15 cells assessed as inhibition of replication at 1 uM pretreated with compound for 2 hrs followed by viral infection and measured after 48 hrs (reference value: 99.6%); format: functional; conditions: Suid alphaherpesvirus 1, PK-15, in Sus scrofa, time 50 hrs
[12] = AUC (0 to infinity) in male Kunming mouse at 30 mg/kg, ip measured up to 8 hrs by LC-MS/MS analysis; format: ADME, organism-based; conditions: in vivo
[13] = Cmax in male Kunming mouse at 30 mg/kg, ip measured up to 8 hrs by LC-MS/MS analysis; format: ADME, organism-based; conditions: in vivo
[14] = Tmax in male Kunming mouse at 30 mg/kg, ip measured up to 8 hrs by LC-MS/MS analysis; format: ADME, organism-based; conditions: in vivo
Suid alphaherpesvirus 1 [15] = assay: Antiviral activity against Suid alphaherpesvirus 1 infected in Kunming mouse assessed as reduction in viral copy numbers in brain at 30 mg/kg, ip measured on day 6 by qPCR analysis; format: functional; conditions: time 6 day
[16] = AUC (0 to t) in male Kunming mouse at 30 mg/kg, ip measured up to 8 hrs by LC-MS/MS analysis; format: ADME, organism-based; conditions: in vivo
Suid alphaherpesvirus 1 [17] = assay: Antiviral activity against Suid alphaherpesvirus 1 infected in Kunming mouse assessed as inhibition of viral copy numbers in brain at 30 mg/kg, ip measured on day 6 by qPCR analysis; format: functional; conditions: Suid alphaherpesvirus 1, 144 h, time 6 day
[18] = MRT (0 to t) in male Kunming mouse at 30 mg/kg, ip measured up to 8 hrs by LC-MS/MS analysis; format: ADME, organism-based; conditions: in vivo
[19] = Half life in male Kunming mouse at 30 mg/kg, ip measured upto 8 hrs by LC-MS/MS analysis; format: ADME, organism-based; conditions: in vivo
Suid alphaherpesvirus 1 [20] = assay: Antiviral activity against Suid alphaherpesvirus 1 infected in Kunming mouse assessed as reduction in viral copy numbers in blood at 30 mg/kg, ip measured on day 6 by qPCR analysis; format: functional, organism-based; conditions: time 6.0 day
[21] = MRT (0 to infinity) in male Kunming mouse at 30 mg/kg, ip measured up to 8 hrs by LC-MS/MS analysis; format: ADME, organism-based; conditions: in vivo
Suid alphaherpesvirus 1 [22] = assay: Antiviral activity against Suid alphaherpesvirus 1 infected in Kunming mouse assessed as survival at 30 mg/kg, ip measured at 7.3 days; format: functional, organism-based; conditions: time 7.3 day

## O=C(NCc1ccc(Cl)cc1)c1cn(C2CC2)c2cc(N3CCNCC3)c(F)cc2c1=O
[1]
  CC50 at 72 h: 9300 nM
Suid alphaherpesvirus 1 [2]
  MIC80: 200 nM (≈ 91 ng/mL)
Suid alphaherpesvirus 1 [3]
  EC50: 2.21 nM

## Cc1cc(O)c2c(c1)C(=O)c1cc(O)cc(O)c1C2=O [EMODIN]
Suid alphaherpesvirus 1 [4]
  EC50: 470 nM

## CCn1cc(C(=O)NCc2cccc(Cl)c2)c(=O)c2cc(F)c(N3CCNCC3)cc21
Suid alphaherpesvirus 1 [2]
  MIC80: 8 nM (≈ 3.54 ng/mL)
Suid alphaherpesvirus 1 [3]
  EC50: 0.85 nM

## O=C(NCc1cc(Cl)ccc1F)c1cn(Cc2ccccc2)c2cc(N3CCNCC3)c(F)cc2c1=O
Suid alphaherpesvirus 1 [2]
  MIC80: 40 nM (≈ 20.9 ng/mL)
Suid alphaherpesvirus 1 [3]
  EC50: 2.11 nM

## Cn1cc(C(=O)NCc2ccc(Cl)cc2)c(=O)c2cc(CN3CCOCC3)ccc21
Suid alphaherpesvirus 1 [5]
  EC50: 0.1 nM
Suid alphaherpesvirus 1 [2]
  MIC80: 0.32 nM (≈ 0.136 ng/mL)
Suid alphaherpesvirus 1 [3]
  EC50: 1.45 nM
[6]
  CC50: 45200 nM

## C[C@]12CC[C@H](O)C[C@H]1CC[C@@H]1[C@@H]2CC[C@]2(C)[C@@H](c3ccc(=O)oc3)CC[C@]12O [BUFALIN]
Suid alphaherpesvirus 1 [7]
  EC50: 33 nM

## CN(C)CCNC(=O)c1cn(C)c2ccc(CN3CCOCC3)cc2c1=O
Suid alphaherpesvirus 1 [8]
  EC50: 0.014 nM
[6]
  CC50: 344000 nM

## O=C(NCc1cc(Cl)ccc1F)c1cn(C2CC2)c2cc(N3CCNCC3)c(F)cc2c1=O
Suid alphaherpesvirus 1 [9]
  inhibition (INH): <=99.5%
[1]
  CC50 at 72 h: > 100000 nM
Suid alphaherpesvirus 1 [2]
  MIC80: 1.6 nM (≈ 0.757 ng/mL)
Suid alphaherpesvirus 1 [3]
  EC50: 0.21 nM

## Oc1cc(O)cc(/C=C/c2ccc(O)c(O)c2)c1 [PICEATANNOL]
Suid alphaherpesvirus 1 [10]
  EC50: 126 nM

## Oc1ccc(O)cc1 [HYDROQUINONE]
Suid alphaherpesvirus 1 [5]
  EC50: 8300 nM

## CCCCCC/C=C\CCCCCCCc1cccc(O)c1C(=O)O [GINGKOLIC ACID]
Suid alphaherpesvirus 1 [5]
  EC50: 3400 nM

## O=C(NCc1cc(Cl)ccn1)c1cn(C2CC2)c2cc(N3CCNCC3)c(F)cc2c1=O
Suid alphaherpesvirus 1 [2]
  MIC80: 8 nM (≈ 3.65 ng/mL)
Suid alphaherpesvirus 1 [3]
  EC50: 0.39 nM

## O=C(NCc1cc(Cl)ccc1Cl)c1cn(C2CC2)c2cc(N3CCNCC3)c(F)cc2c1=O
Suid alphaherpesvirus 1 [2]
  MIC80: 8 nM (≈ 3.92 ng/mL)
Suid alphaherpesvirus 1 [3]
  EC50: 0.71 nM

## CCn1cc(C(=O)O)c(=O)c2cc(F)c(N3CCNCC3)cc21 [NORFLOXACIN]
Suid alphaherpesvirus 1 [11]
  inhibition at 1 µM: 66%

## O=C(NCc1ccc(Cl)c(Cl)c1)c1cn(C2CC2)c2cc(N3CCNCC3)c(F)cc2c1=O
Suid alphaherpesvirus 1 [2]
  MIC80: 8 nM (≈ 3.92 ng/mL)
Suid alphaherpesvirus 1 [3]
  EC50: 0.25 nM

## O=C(O)c1cn(C2CC2)c2cc(N3CCNCC3)c(F)cc2c1=O [CIPROFLOXACIN]
Suid alphaherpesvirus 1 [11]
  inhibition at 1 µM: 65%

## O=C(NCc1cccc(Cl)c1)c1cn(C2CC2)c2cc(N3CCNCC3)c(F)cc2c1=O
Suid alphaherpesvirus 1 [2]
  MIC80: 40 nM (≈ 18.2 ng/mL)
Suid alphaherpesvirus 1 [3]
  EC50: 10.2 nM

## O=C(NCc1cc(Cl)ccc1F)c1cn(-c2ccccc2)c2cc(N3CCNCC3)c(F)cc2c1=O
[12]
  AUC(0-inf): 1330 ng·h/mL
[13]
  Cmax: 342 ng/mL
[14]
  Tmax: 1.5 h
Suid alphaherpesvirus 1 [15]
  Activity: 280 g⁻¹
[16]
  AUC(0-t) at 8 h: 1020 ng·h/mL
Suid alphaherpesvirus 1 [9]
  inhibition (INH): <=99.5%
Suid alphaherpesvirus 1 [17]
  inhibition in vivo at 30 mg/kg: > 99%
[18]
  MRT last at 8 h: 3.15 h
[19]
  half-life: 3.24 h
Suid alphaherpesvirus 1 [20]
  Activity: Active
Suid alphaherpesvirus 1 [2]
  MIC80: 1.6 nM (≈ 0.814 ng/mL)
[21]
  MRT inf: 5.34 h
Suid alphaherpesvirus 1 [3]
  EC50: 0.29 nM
Suid alphaherpesvirus 1 [22]
  Activity: Active
